Values quoted from earlier work as cited in US5208032A, “Increasing the growth of turkeys using implant of 19-nortestosterone” (Rutgers, The State University of New Jersey, priority 1992, dated 1993).

What was measured:
[1] = test system: testosterone antiserum; conditions: manufacturer statement; cited from earlier work
[2] = test system: 5-alpha-DHT anti-serum; conditions: antibody provided by Dr. Alan L. Johnson; cited from earlier work
[3] = mice, Innovative Research pellets, 21 days; cited from earlier work

SMILES	cross-reaction with Immuchem testosterone antiserum [1]	reaction with 5-alpha-DHT anti-serum (Ford's-F/1) [2] [%]	maintained blood levels [3] [ng/mL]
C[C@]12CCC(=O)C=C1CC[C@@H]1[C@@H]2CC[C@]2(C)C(=O)CC[C@@H]12 [4-adrosten-3,17-dione]	0.56%	11.4	–
C[C@]12CC[C@@H](O)C[C@@H]1CC[C@@H]1[C@@H]2CC[C@]2(C)[C@@H](O)CC[C@@H]12 [5-alpha-androstane-3-alpha,17-beta-diol]	less than 0.01%	–	–
C[C@]12CC[C@@H]3c4ccc(O)cc4CC[C@H]3[C@@H]1CC[C@@H]2O [17 beta-estradiol]	–	–	20 to 30
